Literature values in patent US6933291B2, “Cholesterol lowering supplement” (N.V. Nutricia, priority 2000, dated 2005).

Columns and labels:
[1] = case reports from the literature
[2] = rats
HMG-CoA reductase = settings: rats given cholesterol

For `CC[C@H](C)C(=O)O[C@H]1C[C@@H](C)C=C2C=C[C@H](C)[C@H](CC[C@@H]3C[C@@H](O)CC(=O)O3)[C@H]21` [Lovastatin, lovastatin], the “adverse effect reported in patients” value [1] is given as “liver failure”.
In the case of `CC[C@H](CC[C@@H](C)[C@H]1CC[C@H]2[C@@H]3CC=C4C[C@@H](O)CC[C@]4(C)[C@H]3CC[C@]12C)C(C)C` [beta-sitosterol], the “cholesterol absorption (effect in words)” value [2] is given as “inhibited” and the cholesterol synthesis ([2]; increased from 20.0 mg/day) is given as 28.8 mg/day.
In the case of `CC(C)CCC[C@@H](C)[C@H]1CC[C@H]2[C@@H]3CC=C4C[C@@H](O)CC[C@]4(C)[C@H]3CC[C@]12C` [cholesterol], the “conversion of cholesterol to bile acids” value ([2]; enhanced from 13.7 mg/day on feeding cholesterol) is given as 27.3 mg/day, the cholesterol absorption ([2]; increased from 1.2 mg/day on feeding cholesterol) is given as 70 mg/day and the “HMG-CoA reductase activity inhibited” value (HMG-CoA reductase) is given as 80%.
